This is an account of results in PMC7866122, “Development of MTH1-Binding Nucleotide Analogs Based on 7,8-Dihalogenated 7-Deaza-dG Derivatives” (International Journal of Molecular Sciences, 2021).

Molecules are shown by their SMILES. Entries after “also recorded” stand apart in the source; their conditions may differ. Like-named read-outs stand apart in the source and are kept apart here.

The target of test [1] is T1, MTH1 (Homo sapiens, UniProt P36639). As to the kind of experiment: Inhibition of the MTH1 hydrolysis of 8-oxo-dGTP (HPLC). The test is classed as biochemical. Conditions: 50 μM 8-oxo-dGTP, 5 nM MTH1, pH 7.5, 37 °C, 10 min. On the procedure: We examined whether the nucleoside diols, nucleoside monophosphate (NMP), and nucleoside triphosphate (NTP) derivatives inhibit the MTH1 hydrolysis of 8-oxo-dGTP. MTH1 and 8-oxo-dGTP were mixed with various concentrations of synthesized derivatives, and this mixture was incubated and analyzed by HPLC. In the case of diol compounds, 7,8-dichloro-7-deaza-dG (1), 7,8-dibromo-7-deaza-dG (2), and 7,8-diiodo-7-deaza-dG (3) exerted inhibitory effects on the hydrolytic activity of MHT1 at a micromolar level (Table 1, Entries 1–3). Their IC50 values were better than that of 8-iodo-7-deaza-dG (4) (Table 1, Entry 4).
Twenty microliters of MTH1 buffer (100 mM Tris-HCl, pH 7.5, 20 mM MgCl2, 200 mM NaCl, […] BSA, 40 mM DTT, and 50% glycerol), 10 μL (500 μM) of 8-oxo-dGTP, 55 μL of MilliQ, and 10 μL of various concentrations of substituted 7-deaza-dG derivatives were pre-incubated at 37 °C for 10 min (concentrations used: 7-deaza-dG, 7,8-dihalogenated-7-deaza-dG were 0, 0.5, 1, 2.5, 5, 10, 25, 50, 100, and 250 μM in 1% DMSO; 8-CF3-7-deazadGMP (3) was 0, 0.05, 0.1, 0.25, 0.5, 1, 2.5, 5, 10, and 25 μM; 7,8-dihalogenated-7-deaza-dGMP and –dGTP were 0, 0.0125, 0.025, 0.05, 0.1, 0.25, 0.5, 1, and 2.5 μM). Five microliters of MTH1 (0.1 pmol/μL in MTH1 buffer) was added, and the reaction mixture was incubated at 37 °C for 10 min. The resulting solutions were quenched with 100 μL of stop solution (5 mM EDTA). All samples were loaded on ice before the analysis with HPLC (HPLC conditions: A: 0.1 M TEAA, B: MeCN; Flow rate: 1.0 mL/min; Shiseido MG1 (4.6 × 250 mm); UV detector: 254 nm; 35 °C). The relative hydrolysis ratio values (ratio with inhibitor/ratio without inhibitor) were plotted at each inhibitor concentration. IC50 values were assessed using images.

In test [2] the target is T1, MTH1. Details: method as in earlier work. Conditions: inhibition of the hydrolytic activity of MTH1; ChemBioChem 17, 566 (2016); cited from earlier work.
For test [3], the target named is T1, MTH1. As to the kind of experiment: Steady-state kinetics of MTH1 hydrolysis of 8-oxo-dGTP (Lineweaver-Burk plot). The test is classed as biochemical. The conditions noted are these: 2 nM MTH1, 37 °C. An excerpt:
We made a Lineweaver-Burk plot to calculate kinetic parameters (KM and kcat) in order to reveal the types of inhibition modes for MTH1. […] In the presence of new 7-deaza-dG monophosphate and triphosphate, kcat values were only slightly altered (Entries 2–7). On the other hand, all KM values increased (Entries 2–7).

Test [4] addresses T1, MTH1. As to the kind of experiment: Hydrolysis of triphosphate derivatives by MTH1 (HPLC time course). It counts as biochemical. The conditions noted are these: 50 μM dNTP, 5 nM MTH1, 37 °C, various times. On the procedure:
Since the shapes of synthesized triphosphate derivatives were similar to 8-oxo-dGTP, we investigated whether these triphosphate derivatives are hydrolyzed by MTH1. MTH1 and these triphosphate derivatives were mixed and incubated at 37 °C for various times, and hydrolysis reactions were analyzed by HPLC. […] However, in the case of 7,8-dihalogenated triphosphate derivatives, the peak of the corresponding monophosphate was not detected in HPLC following the treatment with MTH1 (Figure 2. 9: purple, 10: red and 11: blue lines).
The reaction mixture was pre-incubated at 37 °C for 10 min before the addition of MTH1 to a final volume of 100 L (final concentration: 20 mM Tris-HCl, pH 7.5, 4 mM MgCl2, 40 mM NaCl, […] bovine serum albumin (BSA), 8 mM dithiothreitol (DTT), 10% glycerol; 0.5 pmol MTH1; 50 μM 7,8-dihalogenated-7-deaza-dGTP […], 8-CF3-7-deaza-dGTP (4), and 8-oxo-dGTP). The resulting solutions were incubated at 37 °C for various times and quenched with 100 μL of stop solution (5 mM EDTA). All samples were loaded on ice before the analysis with HPLC (HPLC conditions: A: 0.1 M TEAA, B: CH3CN; Flow rate: 1.0 mL/min; Shiseido MG1 (4.6 × 250 mm); UV detector: 254 nm; column oven: 35 °C).
Figure 2 Time courses of the hydrolysis of 8-oxo-dGTP, 7-deaza-dGTP, and 7,8-dihalogenated-7-deaza-dGTP (9, 10, and 11) by MTH1. Reaction conditions: 20 mM Tris-HCl pH 7.5, 4 mM MgCl2, 40 mM NaCl, 80 μg/mL bovine serum albumin (BSA), 8 mM dithiothreitol (DTT), 10% glycerol; 50 μM 8-oxo-dGTP, 5 nM MTH1; 50 μM dNTPs; incubated at 37 °C for various times. Hydrolysis reactions were analyzed by HPLC, and the cleavage rate was calculated from the peak area.

Test [5] has as its target T1, MTH1. Also noted: method as in doi:10.1016/j.tet.2014.01.047, PMID 26879218, PMID 27372838. Conditions: earlier work of the authors; cited from earlier work.
Setting [6] is: 8-oxo-dGTP hydrolysis in the presence of inhibitor, 10–250 μM 8-oxo-dGTP.
[7] abbreviates: substrate 8-oxo-dGTP, in the absence of inhibitors.

The compound `Nc1nc2c(c(Cl)c(Cl)n2[C@H]2C[C@H](O)[C@@H](CO)O2)c(=O)[nH]1` [Compound 1, 7,8-di-Chloro-7-deaza-2′-deoxy-guanosine] returned an IC50 at MTH1 [1] of 22500 nM.

At MTH1 [1], `Nc1nc2c(c(Br)c(Br)n2[C@H]2C[C@H](O)[C@@H](CO)O2)c(=O)[nH]1` [Compound 2, 7,8-di-Bromo-7-deaza-2′-deoxy-guanosine] showed a 50% inhibitory concentration (IC50) of 10700 nM.

Compound `Nc1nc2c(c(I)c(I)n2[C@H]2C[C@H](O)[C@@H](CO)O2)c(=O)[nH]1` [Compound 3, 7,8-di-Iodo-7-deaza-2′-deoxy-guanosine] showed an IC50 against MTH1 [1] of 17000 nM.

For the compound `Nc1nc2c(cc(I)n2[C@H]2C[C@H](O)[C@@H](CO)O2)c(=O)[nH]1` [Compound 4, 8-iodo-7-deaza-dG], at MTH1 [2], the half-inhibitory concentration (IC50) was 44800 nM.

With `Nc1nc2c(c(Cl)c(Cl)n2[C@H]2C[C@H](O)[C@@H](COP(=O)(O)O)O2)c(=O)[nH]1` [Compound 5, 7,8-di-Chloro-7-deaza-2′-deoxy-guanosine monophosphate], the kcat at MTH1 [3] (setting [6]) is 9.7 s⁻¹. Also, the Ki at MTH1 [3] (10–250 μM 8-oxo-dGTP) came out at 37 nM. Moreover, the midpoint of inhibition at MTH1 [1], the IC50, lay at 130 nM.

Turning to `Nc1nc2c(c(Br)c(Br)n2[C@H]2C[C@H](O)[C@@H](COP(=O)(O)O)O2)c(=O)[nH]1` [Compound 6, 7,8-di-Bromo-7-deaza-2′-deoxy-guanosine monophosphate], at MTH1 [3] (setting [6]), the catalytic constant (kcat) was 9.1 s⁻¹. For the same compound, the Ki at MTH1 [3] (10–250 μM 8-oxo-dGTP) stood at 27.9 nM. This compound also came in with an IC50 on MTH1 [1] of 260 nM.

For `Nc1nc2c(c(I)c(I)n2[C@H]2C[C@H](O)[C@@H](COP(=O)(O)O)O2)c(=O)[nH]1` [Compound 7, 7,8-di-Iodo-7-deaza-2′-deoxy-guanosine monophosphate], at MTH1 [4], the “Hydrolysis to the monophosphate by MTH1” value is reported as “not hydrolyzed”. Besides, at MTH1 [3] (setting [6]), the kcat was 10.7 s⁻¹. The IC50 against MTH1 [1] was found to be 130 nM.

As to `Nc1nc2c(ccn2[C@H]2C[C@H](O)[C@@H](COP(=O)(O)OP(=O)(O)OP(=O)(O)O)O2)c(=O)[nH]1` [Compound 7-deaza-dGTP, 7-deaza-dGTP, reference compound], the “Hydrolysis to the monophosphate by MTH1” value on MTH1 [4] is “hydrolyzed, but more slowly than 8-oxo-dGTP”.

Regarding `Nc1nc2c(cc(I)n2[C@H]2C[C@H](O)[C@@H](COP(=O)(O)O)O2)c(=O)[nH]1` [Compound 8, 8-Iodo-7-deaza-2′-deoxy-guanosine monophosphate], the IC50 at MTH1 [1] was 840 nM.

With `NC1=NC(=O)C2=NC(=O)N([C@H]3C[C@H](O)[C@@H](COP(=O)(O)OP(=O)(O)OP(=O)(O)O)O3)C2=N1` [Compound 8-oxo-dGTP, 8-oxo-2′-deoxyguanosine-5′-triphosphate, reference compound], the “Hydrolysis to the monophosphate by MTH1” value at MTH1 [4] is recorded as “rapidly hydrolyzed”. Also, on MTH1 [3] (setting [7]), the Km was 17.6 µM and the kcat stood at 10.6 s⁻¹.

`Nc1nc2c(c(Cl)c(Cl)n2[C@H]2C[C@H](O)[C@@H](COP(=O)(O)OP(=O)(O)OP(=O)(O)O)O2)c(=O)[nH]1` [Compound 9, 7,8-di-Chloro-7-deaza-2′-deoxy-guanosine triphosphate]: the “Hydrolysis to the monophosphate by MTH1” value at MTH1 [4] is “not detected”. Further, the kcat at MTH1 [3] (setting [6]) was found to be 9.3 s⁻¹. For the same compound, at MTH1 [3] (10–250 μM 8-oxo-dGTP), the Ki turned out to be 28.1 nM. Besides, the half-inhibitory concentration (IC50) against MTH1 [1] was determined as 160 nM.

For `Nc1nc2c(c(Br)c(Br)n2[C@H]2C[C@H](O)[C@@H](COP(=O)(O)OP(=O)(O)OP(=O)(O)O)O2)c(=O)[nH]1` [Compound 10, 7,8-di-Bromo-7-deaza-2′-deoxy-guanosine triphosphate], the “Hydrolysis to the monophosphate by MTH1” value at MTH1 [4] is given as “not detected; also recorded: not hydrolyzed”. In addition, the kcat at MTH1 [3] (setting [6]) was found to be 9.4 s⁻¹. This compound also showed a Ki on MTH1 [3] (10–250 μM 8-oxo-dGTP) of 24.2 nM. This compound also returned an IC50 against MTH1 [1] of 110 nM.

On to `Nc1nc2c(c(I)c(I)n2[C@H]2C[C@H](O)[C@@H](COP(=O)(O)OP(=O)(O)OP(=O)(O)O)O2)c(=O)[nH]1` [Compound 11, 7,8-di-Iodo-7-deaza-2′-deoxy-guanosine triphosphate], for which the “Hydrolysis to the monophosphate by MTH1” value at MTH1 [4] was “not detected”. In addition, on MTH1 [3] (setting [6]), the catalytic constant (kcat) came to 11.9 s⁻¹. Also, the inhibition constant (Ki) on MTH1 [3] (10–250 μM 8-oxo-dGTP) was determined as 30.4 nM. This compound also yielded an IC50 against MTH1 [1] of 130 nM.

Take `Nc1nc2c(cc(I)n2[C@H]2C[C@H](O)[C@@H](COP(=O)(O)OP(=O)(O)OP(=O)(O)O)O2)c(=O)[nH]1` [Compound 12, 8-iodo-7-deaza-dGTP]: the Ki at MTH1 [5] is 61.7 nM. Besides, the IC50 on MTH1 [2] was 420 nM.

Turning to `CC(=O)OC[C@H]1O[C@@H](n2ccc3c(=O)[nH]c(N)nc32)C[C@@H]1OC(C)=O` [Compound 13, 3′,5′-di-O-Acetyl-7-deaza-2′-deoxyguanosine], on MTH1 [4], the “Hydrolysis to the monophosphate by MTH1” value is “not hydrolyzed”.

With `CNc1cc(-c2cccc(Cl)c2Cl)nc(N)n1` [TH287, reference compound], at MTH1 [2], the IC50 was 10 nM.
